Patent US8541193B2, “Cationic anti-microbial peptides and methods of use thereof” (Systagenix Wound Management (US), Inc., priority 2003, dated 2013)
Where no end group is shown, it is not given here.

Assays:
[1] = system: proteinases secreted by Proteus mirabilis; conditions: in vitro; cited from earlier work
[2] = system: proteinases secreted by Enterococcus faecalis; conditions: in vitro; cited from earlier work
[3] = system: proteinases secreted by Streptococcus pyogenes; conditions: in vitro; cited from earlier work
[4] = system: proteinases secreted by Pseudomonas aeruginosa; conditions: in vitro; cited from earlier work
[5] = system: Pseudomonas; assay: Fluorimetric (edans/dabcyl) protease detection assay with bacterial culture or supernatant in buffer; assay type: biochemical
Experimental: (§1) The peptide substrates used here were labeled with the fluorescent probe edans (5-((2-aminoethyl)amino)naphthalene-1-sulphonic acid) and the quencher dye molecule dabcyl((4-(4-(dimethylamino)phenyl)azo)benzoic acid).
(§2) The bacteria were grown in an incubator overnight at 37° C. in 5 ml BHI (Brain Heart Infusion) media. Each of the resulting cultures was split into two samples. One was used as is, and the other was spun down and the supernatant was collected. The assays were run in 20 mM tris buffer (pH 7.4) with 150 mM NaCl added. The reaction was carried out with 7 μl of culture or supernatant and 3 μl peptide substrate (5 mg/ml in water) in 100 μl total volume at 37 C. The reaction was followed on a fluorimetric plate reader using an excitation wavelength of 355 nm and an emission wavelength of 485 nm.
(§3) The first set of experiments was performed by addition of the bacterial culture (media and cells) directly into the assay solution. If the protease is attached to the cell membrane it would not be expected to be found secreted into the media. Thus, the presence of cells would be necessary.
(§4) Bacterial cells used in this assay were grown to stationary phase in Brain Heart Infusion (BHI) medium. Briefly, 7 μl of bacterial culture was incubated with 3 μl of LL 1 peptide substrate and […] of […]). The reaction was followed on a 96 well microtiter plate reader using an excitation an emission wavelength of 355 nm and 538 nm respectively at 37° C. The reaction was monitored for a period of 1 hr. and plotted using the KALEIDAGRAPH software. Buffer, 20 mM Tris buffer (pH 7.4) with 150 mM NaCl.
(§5) The assay was repeated using identical conditions with the peptide LL2.
(§6) Bacterial cells used in this assay were grown to stationary phase in Brain Heart Infusion (BHI) medium. The assay was performed as previously described.

[6] = system: S. pyogenes; assay: as above; assay type: biochemical
Experimental: as §1, §2, §3, §4, §5, §6

[7] = system: Pseudomonas; assay: Porcine wound fluid protease assay; assay type: biochemical
Experimental: (§7) In order to test for cross reactivity in a wound, the assays were performed under physiologically relevant conditions. The assay for LL1 and LL2 were tested using porcine wound fluid extract in place of reaction buffer.
(§8) Immediately after surgery to create partial thickness wounds for the sensor study a gauze dressing was placed on the wound. After a time the dressing was removed, bagged, and placed in a freezer at −80 C. Absorbed wound fluid was recovered from the dressing by incubation in 10 mls buffer (0.1M Tris-HCl, pH 7.4 with 0.1% TRITON X-100® non-ionic surfactant (Octylphenol ethylene oxide condensate; Sigma Aldrich, St. Louis, Mo.). The dressing was incubated on both sides for 2 hours at room temperature and squeezed out. The fluid obtained was aliquoted out and frozen at −20 C.
(§9) The bacteria were grown in an incubator overnight at 37° C. in 5 ml BHI (Brain Heart Infusion) media. Each of the resulting cultures was spun down and the supernatant was collected. The assays were run in freshly thawed wound fluid. The reaction was carried out with 7 μl of culture or supernatant and 3 μl peptide substrate (5 mg/ml in water) in 100 μl total volume at 37 C. The reaction was followed on a fluorimetric plate reader using an excitation wavelength of 355 nm and an emission wavelength of 485 nm.
(§10) The protease assay was run using the LL2 peptide previously identified as a substrate for S. pyogenes and Pseudomonas.
(§11) Bacterial cells used in this assay were grown to stationary phase in Brain Heart Infusion […] medium. Briefly, 5 μl of bacterial culture was incubated with 3 μl of LL2 peptide substrate and 92 μl of sterile wound fluid. The reaction was followed on a 96 well microtiter plate reader using an excitation an emission wavelength of 355 nm and 538 nm respectively at 37° C. The reaction was monitored for a period of 1 h and plotted using the KALEIDAGRAPH software.

[8] = system: S. pyogenes; assay: Porcine wound fluid protease assay; assay type: biochemical; conditions: S. pyogenes bacterial supernatant in porcine wound fluid
Experimental: as §7, §8, §9, §10, §11

[9] = system: Serratia; assay: Fluorimetric (edans/dabcyl) protease detection assay with bacterial culture in buffer; assay type: biochemical; conditions: Serratia bacterial culture (media and cells), 37 C, 1 hr
Experimental: as §1, §2
The first set of experiments was performed by addition of the bacterial culture (media and cells) directly into the assay solution. If the protease is attached to the cell membrane it would not be expected to be found secreted into the media. […]
Bacterial cells used in this assay were grown to stationary phase in Brain Heart Infusion (BHI) medium. […] The reaction was followed on a 96 well microtiter plate reader using an excitation an emission wavelength of 355 nm and 538 nm respectively at 37° C. The reaction was monitored for a period of 1 hr. and plotted using the KALEIDAGRAPH software. […]

[10] = Pseudomonas bacterial culture (media and cells), buffer, 37 C, 1 hr
[11] = Pseudomonas bacterial supernatant, compared with culture with cells
[12] = S. pyogenes bacterial culture (media and cells), buffer, 37 C, 1 hr

Row | Substance | degradation of peptide by secreted proteinases [1] | degradation of peptide by secreted proteinases [2] | degradation of peptide by secreted proteinases [3] | degradation of peptide by secreted proteinases [4] | protease activity on peptide substrate (fluorescence) [5, 10] | protease activity on peptide substrate (fluorescence) [5, 11] | specificity of peptide substrate ([6]; FIG. 3 legend) | protease activity on peptide substrate (fluorescence) [6, 12] | protease activity on peptide substrate (fluorescence) ([7]; Pseudomonas bacterial culture in sterile porcine wound fluid, 37 C, 1 h) | protease activity on peptide substrate (fluorescence) ([7]; Pseudomonas bacterial supernatant in porcine wound fluid) | protease activity on peptide substrate (fluorescence) [8] | protease activity on peptide substrate (fluorescence) ([6]; S. pyogenes bacterial supernatant, compared with culture with cells) | protease activity on peptide substrate (fluorescence) [9]
1 | LLGDFFRKSKEKIGKE FKRIVQRIKDFLRNLVPRTES [LL-37] | degrade | degrade | degrade | degrade | – | – | – | – | – | – | – | – | –
2 | LL2: peptide substrate, variant of LL-37 encompassing its cleavage sites, labeled with fluorescent probe edans and quencher dabcyl (FIG. 1C) (KVQRIKDFLRNLVE; also: labeled with edans and dabcyl) | – | – | – | – | overall reactivity appears to be reduced somewhat | reduced | specific for S. pyogenes | overall reactivity appears to be reduced somewhat | did not have any activity above the background | same results | same results | – | –
3 | LL1: peptide substrate, variant of LL-37 encompassing its cleavage sites, labeled with fluorescent probe edans and quencher dabcyl (FIG. 1B) (KEKIGKEFKRIVQE; also: labeled with edans and dabcyl) | – | – | – | – | Some protease activity | reduced | – | Some protease activity | – | – | – | similar | a small amount of activity
